Assay results: patent publication US11591476B2, “In-vivo probe for real time longitudinal monitoring of inducible nitric-oxide synthase in living cells and animals” (priority 2016, dated 2023)

Assay: Fluorescence excitation and emission maxima of the probes
Type: physicochemical
Description: The probe of the present disclosure can selectively bind iNOS enzyme and produce a perceptible change in fluorescence upon binding.

With CN1c2cc3c(cc2C(CS(=O)(=O)[O-])=CC1(C)C)C(c1c(Cl)c(SCC(=O)NCCCCCC(=O)N2CCN(c4ccnc(-n5ccnc5)n4)C(CC(=O)NCc4ccc5c(c4)OCO5)C2)c(Cl)c(Cl)c1C(=O)O)=c1cc2c(cc1O3)=[N+](C)C(C)(C)C=C2CS(=O)(=O)O (centres unmarked) [PIA-610, Pyrimidine Imidazole Alexa-Fluor-610] the emission wavelength was 630 nm and the maximum excitation wavelength was 610 nm.
